Assay results: US11110080B2, “Small molecule inhibitors of bacterial efflux pumps and methods of using same” (The Regents of the University of Colorado, a body Corporate, priority 2017, dated 2021)
“And” between values parts separate entries of the source, which are not always exact repeats. Equal values may be shown once. “Also recorded” adds a separate entry of the source. Read-outs that look alike come from different tables or passages of the source.

What was measured:
[1] = test system: extracellular S.Tm grown in MHB broth; assay: Broth activity assay (growth / MIC in Mueller Hinton Broth); assay type: cell-based, Salmonella enterica serovar Typhimurium; settings: Salmonella enterica, three Salmonella strains SL1344, MAR1, S10801
Experimental: Overnight Salmonella cultures were washed 3 times in PBS and diluted to an OD of 0.01 in Mueller Hinton Broth in 96-well flat bottom plates. Compound was added using a pin tool (CyBio) or manually, yielding a final concentration of no more than 1% DMSO. Plates were grown at 37° C. shaking and OD600 was monitored using a BioTek Eon incubator shaker microplate absorbance reader. For experiments in defined media, bacteria were grown in M9 minimal media supplemented with 100 mM Tris pH 7.4, 0.35% glycerol, 0.002% histidine, 10 mM MgCl2, and 0.1% casamino acids. Where indicated, media was supplemented with 5 μg/ml polymyxin B or 0.2 mM H2O2. For experiments with LL-37, bacteria were grown in M9 minimal media supplemented with 0.4% dextrose, 0.004% histidine, 1 mM MgSO4, and 5 μg/ml LL-37. For checkerboard assays, MIC was defined as the concentration at which no growth was visually observed.

E. coli = assay: Nile Red export in E. coli; assay type: cell-based; settings: after glucose addition
Source text: (§1) Six pathogens that cause the bulk of MDR nosocomial infections have been dubbed the ESKAPE pathogens: Enterococcus faecium, Staphylococcus aureus, Klebsiella pneumoniae, Acinetobacter baumannii, Pseudomonas aeruginosa, and Enterobacter species (56).
(§2) Referring to FIGS. 22A-22D: Defined strains obtained from BEI resources were examined for Nile Red retention after glucose addition in the presence of the indicated compound. *p<0.05; **p<0.01; ***p<0.001; ****p<0.0001 as determined by comparison to DMSO+glucose with a one-way ANOVA and Dunnett's multiple comparison post-test.
(§3) Nile Red assays were adapted from an established protocol. Briefly, overnight Salmonella cultures were grown in Mueller-Hinton cation-adjusted broth (Sigma), washed, and resuspended at an OD600 of 2.0. Cells were incubated in 10 μM Nile Red for 3 hours at 37° C. with aeration, then moved to room temperature for 1 hour. After pelleting at 2000× g, dye-loaded cells were aliquoted and combined with compound at the indicated concentrations. Two hundred microliters was loaded into 96-well black walled plates (Greiner) and read using a Varioskan Flash Multimode Reader with 540 nm excitation and 625 nm emission filters. We observed that during loading into plates (˜20 minutes), bacteria were able to efflux Nile Red even in the absence of glucose (FIG. 8A). […]

Enterobacter cloacae = assay: Nile Red export in MDR clinical isolate; assay type: cell-based; settings: after glucose addition
Source text: as §1, §2, §3

S.Tm efflux pumps [2] = assay: Hoechst 33342 accumulation assay; assay type: cell-based, Salmonella enterica serovar Typhimurium
Experimental: Efflux pumps (EPs) represent a key pathogen virulence strategy to protect against host antimicrobials as well as therapeutic antibiotics. […] To uncover putative EPMs within our collection of hits, 58 repurchased compounds were screened in a Hoechst accumulation assay. Bacteria were incubated with Hoechst 33342, a dye which fluoresces when bound to DNA.
Hoechst accumulation assays were performed essentially as described in the literature. Briefly, overnight Salmonella cultures were washed 3 times in PBS and diluted to an OD of 0.1 in PBS with 2.5 μM Hoechst 33342 in the presence of the indicated concentrations of compounds. Fluorescence was monitored on a Biotek Synergy 2 with a 360/40 nm excitation filter and 460/40 nm emission filter. The maximum Hoechst fluorescence over 60 minutes of incubation was normalized to the signal from the equivalent number of heat-killed bacteria, after subtraction of autofluroescent signal determined from compound incubated in the absence of bacteria. Curve fitting to determine EC50s was performed using GraphPad Prism.

K. pneumoniae = assay: Nile Red export in MDR clinical isolate; assay type: cell-based, Klebsiella pneumoniae; settings: after glucose addition
Source text: as §1, §2, §3

S.Tm efflux pumps [3] = assay: Nile Red efflux assay; assay type: cell-based, Salmonella enterica serovar Typhimurium; settings: for glucose-activated efflux of Nile Red: 100 μM; for Nile Red efflux after washout of compound: 15 minutes with compound, washed, then glucose; for Nile Red fluorescence in the absence of glucose (basal loss): no glucose
Source text: Because Hoechst and other dyes commonly used to assess efflux bind cellular components, direct measurement of efflux is not possible using these methods; instead, the Hoechst assay measures dye accumulation, the net result of entry and efflux. Further, the slow off-rate of Hoechst entails that efflux pumps have no effect on dye already bound to DNA. As a result, compounds which increase Hoechst accumulation may actually enhance dye entry by altering porins or disrupting the membrane. To more specifically measure efflux pump activity, a second technique was employed using the dye Nile Red, a lipophilic membrane-partitioning dye which fluoresces in nonpolar environments. Because Nile Red is not known to bind cellular components, to directly observe efflux cells were preloaded with the dye in the absence of glucose to reduce efflux pump activity (FIG. 7A). Upon addition of glucose, bacteria rapidly effluxed Nile Red and fluorescence returned to baseline levels (FIG. 7B, top panel). […] The initial measured fluorescence was lower for DMSO-treated cells (upper dotted line) than for PAβN-treated cells due to glucose-independent efflux during sample preparation (FIG. 8A). Next, it was determined whether efflux pump activity is restored after removal of PAβN. Bacteria were incubated with compound for 15 minutes, pelleted and resuspended in buffer lacking compound, and then stimulated with glucose (FIGS. 7C, 7E).
Nile Red assays were adapted from an established protocol. Briefly, overnight Salmonella cultures were grown in Mueller-Hinton cation-adjusted broth (Sigma), washed, and resuspended at an OD600 of 2.0. Cells were incubated in 10 μM Nile Red for 3 hours at 37° C. with aeration, then moved to room temperature for 1 hour. After pelleting at 2000× g, dye-loaded cells were aliquoted and combined with compound at the indicated concentrations. Two hundred microliters was loaded into 96-well black walled plates (Greiner) and read using a Varioskan Flash Multimode Reader with 540 nm excitation and 625 nm emission filters. We observed that during loading into plates (˜20 minutes), bacteria were able to efflux Nile Red even in the absence of glucose (FIG. 8A). To activate efflux, glucose was added to a final concentration of 2 mM. In some experiments, bacteria were treated with drug for 15 minutes, pelleted at 16,000×g, resuspended in fresh buffer, and stimulated with 2 mM glucose. All wash and incubation steps were performed in PBS with 1 mM MgCl2; incubations were performed in glass tubes to reduce adhesion of Nile Red.

S.Tm = assay: Swimming assay in soft agar (proton motive force); assay type: cell-based, Salmonella enterica serovar Typhimurium; settings: 50 mM, 10 μl on disk (500×, 125×, ~62.5× the MIC for EPM30, EPM35, EPM43)

OC(COc1ccc(Cl)c(Cl)c1)CN1CCC(Nc2nccc(C(F)(F)F)n2)CC1 (stereo not shown) [EPM35]
MIC [1]: 400 µM and 186 µg/mL | Nile Red export (E. coli): significantly reduced Nile Red export | Nile Red export (Enterobacter cloacae): significantly reduced Nile Red export | Hoechst assay EC50 relative to PAβN (S.Tm efflux pumps [2]): lower than that of PAβN | Hoechst accumulation / fluorescence (S.Tm efflux pumps [2]; wild-type S.Tm, 60 minutes): increased S.Tm accumulation of Hoechst in a dose-dependent manner; also recorded: fluorescence comparable to that of PAβN | Nile Red export (K. pneumoniae): significantly reduced Nile Red export | glucose-activated efflux of Nile Red (S.Tm efflux pumps [3]): fully inhibited efflux | Nile Red efflux after washout of compound (S.Tm efflux pumps [3]): remained unable to efflux | Nile Red fluorescence in the absence of glucose (basal loss) (S.Tm efflux pumps [3]): inhibit basal loss of Nile Red | halo in swimming assay (S.Tm): formed a small halo

Cc1ccc(Sc2cccc3nc(N)nc(N)c23)cc1 [EPM43]
MIC [1]: > 400 µM and 113 µg/mL | Nile Red export (E. coli): significantly reduced Nile Red export | Nile Red export (Enterobacter cloacae): significantly reduced Nile Red export | Hoechst accumulation / fluorescence (S.Tm efflux pumps [2]): increased S.Tm accumulation of Hoechst in a dose-dependent manner; also recorded: fluorescence comparable to that of PAβN | Nile Red export (K. pneumoniae): significantly reduced Nile Red export | glucose-activated efflux of Nile Red (S.Tm efflux pumps [3]): only partially inhibited efflux | Nile Red efflux after washout of compound (S.Tm efflux pumps [3]): partially effluxed Nile Red after compound washout; also recorded: partially restored Nile Red export | Nile Red fluorescence in the absence of glucose (basal loss) (S.Tm efflux pumps [3]): inhibit basal loss of Nile Red | halo in swimming assay (S.Tm): formed no halo
